Like-named read-outs stand apart in the source and are kept apart here.
Tests used:
[1] = Hygroscopicity test: weight changes at 25° C., 75% relative humidity; format: physicochemical
Protocol: 7-carboxymethyloxy-3′,4′,5-trimethoxy flavone.monohydrate prepared in the above example 1 or example 2 was exactly measured by using a weighing bottle (6 cm in diameter). 1 g of the 7-carboxymethyloxy-3′,4′,5-trimethoxy flavone.monohydrate was prepared as a sample. The sample was kept in a vessel in which temperature was set; at 25° C. and 75% relative humidity was maintained. Weight changes of the sample were measured after 2, 4, and 6 hours and on the first day, on the 3rd day, and on the 6th day. The amount of weight change was calculated as percentage to the starting weight of the sample and the results are shown in Table 1.
Weight changes of 7-carboxymethyloxy-3′,4′,5-trimethoxy flavone.anhydride prepared in the comparative example were also measured by the same method as mentioned above, and the results are shown in Table 1.

[2] = Test of conversion of ethanol solvate into monohydrate: weight changes at 25° C., 75% relative humidity; format: physicochemical
Protocol: 7-carboxymethyloxy-3′,4′,5-trimethoxy flavone.monohydrate prepared in the above example 1 or example 2 was measured by using a weighing bottle (6 cm in diameter). 1 g of the 7-carboxymethyloxy-3′,4′,5-trimethoxy flavone.monohydrate was prepared as a sample. The sample was kept in a receptacle in which temperature was set at 25° C. and 75% relative humidity. On the let, 1st, 2nd, 3rd and 6th day, the weight of samples were measured.
Weight changes of 7-carboxymethyloxy-3′,4′,5-trimethoxy flavone.ethanol solvate prepared in the above example 3 were also investigated by the same method as mentioned above, and the results are shown in Table 2.

[3] = system: gastric mucosal damage induced by ethanolic-HCl; assay: Gastric mucosal damaged model induced by ethanolic-HCl (ulcer index); format: in vivo, SD male rats; conditions: rats, oral; for ED50: Rattus norvegicus, 1 hour before 150 mM HCl-80% ethanol, ulcer index
Protocol: SD male rats (250-350 g) were fasted for 24 hours. The compound of the present invention was orally administered in suspension of 5% HPMC, and after 1 hour, 1.5 ml of 150 mM HCl-80% ethanol was orally administered. After 1 hour, the rats were sacrificed and the stomachs were extracted to measure ulcer index. The ulcer index was shown by the area (mm^2) of hemorrhage lesion (Mizui, T, et al., Jpn. J. Pharmacol. 1983, 33: 939).
Rebamipide [2-(4-chlorobenzoylamino)-3-(2-(1H)-quinolinone-4-yl)propanonic acid] (Trade Name: Mucosta) was used as a control medicine.

[4] = system: TNBS-induced colitis model; assay: Model of inflammatory bowel diseases induced with TNBS (lesion score); format: in vivo, male SD rats
Protocol: The modified method of Shibata et al. (Dig. Endosc. 1993, 5: 13) was used. 7 week-old male SD rats (CRJ) were fasted for a day, and the rats were put under anesthesia and canula (diameter 3 mm) was inserted into the anus to the depth of 8 cm. 25 mg/ml of TNBS (Trinitrobenzene sulfonic acid) dissolved in 50% ethanol solution was injected to each rat and the rats were positioned at feature of tail up for 1 minute. The solution flowing out was removed and the rats were once washed with 1.5 ml of saline solution. After colitis was induced, the compound of the present invention was administered orally or rectally from the next day of inducing to the 6th day. For control medicine, sulfasalazine […] was used for oral administration and prednisolone was used for rectal administration. And for control group, 5% HPMC was administered. On the 7th day of experiment, each group of the rats was put under ether anesthesia for autopsy. The colon was extracted. After 1% formalin solution was injected into the cavity of the extracted colon to inflate, the both ends of it were bonded with each other, which was then fixed in 1% formalin solution for 2 hours. The all-fixed colon was cut to lengthy direction and washed to remove surrounding fat tissues and connective fissaes. Cecum was removed and the weight of the colon and the rectum was measured. The area of ulcer lesion and inflammatory region were measured to mark scores according to the criterion. Then they were fixed in 10% neutral formalin solution, and the tissue examination of lesion site was performed by a general method to mark scores according to criterion.
Clinical symptoms: Daily, clinical symptoms and survival of the animals were observed. The weight of animals was measured at the beginning day, the 3rd day and the 8th day of the experiment.
Observation with naked eye: The number and the width of the ulcer and lesion area formed in the large intestine were measured and recorded. By using modified Wallace's method (Can. J. Physiol. Pharmacol., 1988, 66: 422), lesion examined with the naked eye was scored and the average value of each group was compared. The standard of lesion scores as criterion of the damage of the colon by Wallace's method […] is as follows.
(0: normal, non-damaged, 1: congestion without ulcer, 2: congestion and thickening of intestinal wall without ulcer, 3: an ulcer lesion without thickening of intestinal wall, 4: more than two ulcerous/inflammatory lesion, 5: more than two ulcerous/inflammatory lesion or the length of ulcerous/inflammatory lesion is more than 1 cm, 6-10: when the length of lesion is over 2 cm, one point increases every time 1 cm of the length of ulcerous/inflammatory increases, for example: when the ulcer length is 3 cm, the point is 7)
Pathological tissue examination: The colon was trimmed at 3 cm interval from the rectum to the cecum, including the site of lesion examined with the naked eye, to make at least 4 specimens per an individual. Pathological tissue examination on the specimens was performed and the results were scored by modified method of Moyama (Ann. Clin. Lab. Sci., 1990, 20: 420). And the highest score was regarded as the score of an individual. When the lesion cannot be examined with the naked eye, the other specimen having lesion was trimmed, at 3 cm interval, from another individual.

[5] = listed as 7-carboxymethyloxy-3′,4′,5-trimethoxy flavone.monohydrate

Compound | Weight changes according to the time lapse (%) ([1]; 0 h) | Weight changes according to the time lapse (%) ([1]; 2 h) | Weight changes according to the time lapse (%) ([1]; 4 h) | Weight changes according to the time lapse (%) ([1]; 6 h) | Weight changes according to the time lapse (%) ([1]; 1 day) | Weight changes according to the time lapse (%) ([1]; 3 day) | Weight changes according to the time lapse (%) ([1]; 6 day) | Weight changes according to the time lapse (%) ([2]; 0 day) | Weight changes according to the time lapse (%) ([2]; 1 day) | Weight changes according to the time lapse (%) ([2]; 2 day) | Weight changes according to the time lapse (%) ([2]; 3 day) | Weight changes according to the time lapse (%) ([2]; 6 day) | ED50 [3] | other results
COc1ccc(-c2cc(=O)c3c(OC)cc(OCC(=O)O)cc3o2)cc1OC [Anhydride, reference compound] | 0% | +3.4% | +4.7% | +4.7% | +4.6% | +4.5% | +4.6% |  |  |  |  |  |  | Weight changes according to the time lapse (%) ([1]; 2 h, listed as 7-carboxymethyloxy-3′,4′,5-trimethoxy flavone.anhydride): 3.4%; weight increase (average) ([1]; from the 4th hour): 4.6%
COc1ccc(-c2cc(=O)c3c(OC)cc(OCC(=O)O)cc3o2)cc1OC [Ethanol solvate, 7-carboxymethyloxy-3′,4′,5-trimethoxy flavone.ethanol solvate] |  |  |  |  |  |  |  | 0% | −4.1% | −6.5% | −6.5% | −6.5% |  | weight change / conversion (in words) [2]: converted into monohydrate; weight decrease (average) ([2]; after one day): 4.1%; weight decrease (average) ([2]; after two days, constant thereafter): 6.5%
COc1ccc(-c2cc(=O)c3c(OC)cc(OCC(=O)O)cc3o2)cc1OC [Monohydrate, 7-carboxymethyloxy-3′,4′,5-trimethoxy flavone.monohydrate] | 0% | −0.2% | −0.3% | +0.2% | −0.3% | +0.3% | +0.3% | 0% | −0.3% | +0.3% | +0.3% | +0.3% | 0.33 mg/kg | weight change / conversion (in words) [2, 5]: did not show any weight change; weight change / hygroscopicity (in words) [1, 5]: did not show any weight change; weight change / hygroscopicity (in words) ([1]; listed as monohydrate): no weight change; protecting effect on the damage of gastric mucosa relative to Rebamipide ([3]; ratio of ED50): at least 100 times; effect on the TNBS-induced inflammatory colitis model (in words) ([4]; oral and rectal administration): showed inhibiting effect; Lesion score ([4]; orally administered, 0.3 mg/kg p.o, control 5% HPMC 9.0): 7.5; Lesion score ([4]; orally administered, 3 mg/kg p.o, control 5% HPMC 9.0): 5.9; Lesion score ([4]; rectally administered, 0.3 mg/kg, control 5% HPMC 5.3): 2.0
C[C@]12C=CC(=O)C=C1CC[C@@H]1[C@@H]2[C@@H](O)C[C@@]2(C)[C@H]1CC[C@]2(O)C(=O)CO [Prednisolone, reference compound] |  |  |  |  |  |  |  |  |  |  |  |  |  | Lesion score ([4]; rectally administered, 1 mg/kg, control 5% HPMC 5.3): 4.8
O=C(NC(Cc1cc(=O)[nH]c2ccccc12)C(=O)O)c1ccc(Cl)cc1 (centres unmarked) [Rebamipide, 2-(4-chlorobenzoylamino)-3-(2-(1H)-quinolinone-4-yl)propanonic acid, reference compound] |  |  |  |  |  |  |  |  |  |  |  |  | 44.2 mg/kg | 
O=C(O)c1cc(/N=N/c2ccc(S(=O)(=O)Nc3ccccn3)cc2)ccc1O [Sulfasalazine, reference compound] |  |  |  |  |  |  |  |  |  |  |  |  |  | Lesion score ([4]; orally administered, 100 mg/kg p.o, control 5% HPMC 9.0): 7.7

Reference: patent US7371775B2, “7-carboxymethyloxy-3′,4′,5-trimethoxy flavone monohydrate, the preparation method and uses thereof” (Dong-A Pharmaceuticals Co., Ltd, priority 2003, dated 2008)
